Measured values from the supplement of paper PMC10307832.

Legend:
Experiment in all cases: relative viability (nuclei count vs DMSO), 5 days (fraction); higher = more cells survive
[1] = compound: O=S(=O)(c1ccccc1)N(CC(F)(F)F)c1ccc(C(O)(C(F)(F)F)C(F)(F)F)cc1 + COc1cccc2cc(-c3nc([C@H]4CC[C@H](C(=O)O)CC4)n4ncnc(N)c34)[nH]c12 [OSI-027] (partner 0.5 µM)
Outline: (§1)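 After 5 days of treatment, lung cancer cells in 1536-well plates were fixed and stained in a single step (final 0.05% Triton X-100, 1% formaldehyde, 1 ug/ml Hoechst) and their nuclei counted on 4× images. Treatment had been applied by pin tool the day after seeding as one drug alone or as a fixed anchor-drug dose with five library-drug doses (not always all listed) in √10 steps. Relative viability is the nuclei count of treated wells divided by that of vehicle wells, and values are medians of duplicate plates.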

[2] = compound: C1=CC2=C(C=CC(=C2)C=C3C(=O)NC(=NCC4=CC=CS4)S3)N=C1 [RO-3306] + Cc1nc(Nc2ncc(C(=O)Nc3c(C)cccc3Cl)s2)cc(N2CCN(CCO)CC2)n1 [Dasatinib] (partner 0.075 µM)
Outline: as §1

[3] = compound: O=S(=O)(c1ccccc1)N(CC(F)(F)F)c1ccc(C(O)(C(F)(F)F)C(F)(F)F)cc1 + Nc1ncn([C@H]2C[C@H](O)[C@@H](CO)O2)c(=O)n1 [Decitabine] (partner 2 µM)
Outline: as §1

[4] = compound: O=S(=O)(c1ccccc1)N(CC(F)(F)F)c1ccc(C(O)(C(F)(F)F)C(F)(F)F)cc1 + O=C(CCCCCCC(=O)Nc1ccccc1)NO [Vorinostat] (partner 1 µM)
Outline: as §1

[5] = compound: C1=CC2=C(C=CC(=C2)C=C3C(=O)NC(=NCC4=CC=CS4)S3)N=C1 [RO-3306] + COc1cc2c(Oc3ccc(NC(=O)C4(C(=O)Nc5ccc(F)cc5)CC4)cc3F)ccnc2cc1OCCCN1CCOCC1 [Foretinib] (partner 0.25 µM)
Outline: as §1

UMC-11 showed a relative viability ([1]; first compound 0.8 µM) of 0.491, a relative viability ([1]; first compound 2.53 µM) of 0.444 and a relative viability ([1]; first compound 8 µM) of 0.526. It also gave a relative viability ([2]; first compound 0.01 µM) of 0.553, a relative viability ([2]; first compound 0.03162 µM) of 0.341 and a relative viability ([2]; first compound 0.1 µM) of 0.432. The relative viability ([2]; first compound 0.3162 µM) was 0.546, the relative viability ([2]; first compound 1 µM) was 0.453 and the relative viability ([3]; first compound 0.8 µM) was 0.587. For the same cell line, the relative viability ([3]; first compound 2.53 µM) was 0.471, the relative viability ([3]; first compound 8 µM) was 0.681 and the relative viability ([4]; first compound 0.8 µM) was 0.381. The relative viability ([4]; first compound 2.53 µM) was 0.357, the relative viability ([4]; first compound 8 µM) was 0.396 and the relative viability ([5]; first compound 0.01 µM) was 0.999. It also gave a relative viability ([5]; first compound 0.03162 µM) of 0.772, a relative viability ([5]; first compound 0.1 µM) of 1.05 and a relative viability ([5]; first compound 0.3162 µM) of 1.21. The relative viability ([5]; first compound 1 µM) was 1.16.
